Assay results from PubChem BioAssay (NCI).
“And” between values parts separate entries of the source, which are not always exact repeats. Equal entries are not always repeated.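 Assay format: 96-well plates, 48-hour exposure. GI50 marks 50% less growth. TGI denotes the concentration required for complete inhibition of growth.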

Experiments:
Assay in all cases: NCI tumour cell line growth inhibition, 48 h
PC-3 prostate = tested on: PC-3 prostate
SK-MEL-28 melanoma = tested on: SK-MEL-28 melanoma
MALME-3M melanoma = tested on: MALME-3M melanoma
SNB-75 CNS = tested on: SNB-75 CNS
SNB-19 CNS = tested on: SNB-19 CNS
HL-60(TB) leukemia = tested on: HL-60(TB) leukemia
MOLT-4 leukemia = tested on: MOLT-4 leukemia
HCT-116 colon = tested on: HCT-116 colon
HCT-15 colon = tested on: HCT-15 colon
COLO 205 colon = tested on: COLO 205 colon

SMILES | GI50 (PC-3 prostate) | TGI (PC-3 prostate) | GI50 (SK-MEL-28 melanoma) | TGI (SK-MEL-28 melanoma) | GI50 (MALME-3M melanoma) | TGI (MALME-3M melanoma) | GI50 (SNB-75 CNS) | TGI (SNB-75 CNS) | GI50 (SNB-19 CNS) | TGI (SNB-19 CNS) | GI50 (HL-60(TB) leukemia) | TGI (HL-60(TB) leukemia) | GI50 (MOLT-4 leukemia) | TGI (MOLT-4 leukemia) | GI50 (HCT-116 colon) | TGI (HCT-116 colon) | GI50 (HCT-15 colon) | TGI (HCT-15 colon) | GI50 (COLO 205 colon) | TGI (COLO 205 colon)
COc1cc2cc(Oc3ccc(NC(=O)Nc4cccc(C(F)(F)F)c4)cc3)c(C)nc2cc1OCCN1CCCCC1 | 1.41 µM | 2.77 µM | 1.76 µM | 3.14 µM | 1.63 µM | 3.07 µM | 1.15 µM | 2.37 µM | 1.66 µM | 3.1 µM | 1.94 µM | 3.74 µM |  |  |  |  |  |  |  | 
Nc1cccc2c1C(=O)N(C1CCC(=O)NC1=O)C2=O (stereo not drawn) | > 100 µM | > 100 µM | > 100 µM | > 100 µM | > 100 µM | > 100 µM | > 100 µM | > 100 µM | > 100 µM | > 100 µM | > 100 µM | > 100 µM | > 100 µM | > 100 µM | > 100 µM | > 100 µM | > 100 µM | > 100 µM | > 100 µM | > 100 µM
CCOC(=O)c1cnc(SCc2ccc(Cl)c(Cl)c2)nc1N1CC1 | 2.74 µM | 15.2 µM | 5.88 µM | 19.9 µM | 3.33 µM | 14.8 µM | 2.05 µM | 6.09 µM | 6.93 µM | 23.8 µM | 1.72 µM | 9.13 µM | 3.27 µM | 15 µM | 0.9 µM | 10.9 µM | 1.31 µM | 14.4 µM | 2.9 µM | 13.2 µM
COc1ccc(/C(=C/c2cc(OC)c(OC)c(OC)c2)[N+](=O)[O-])cc1 | 1.95 µM | 3.88 µM | 1.88 µM | 3.9 µM | 1.68 µM | 3.71 µM | 2.02 µM | 6.3 µM | 1.68 µM | 3.64 µM | 1.61 µM | 5.59 µM |  |  |  |  | 1.63 µM | 3.54 µM | 1.79 µM | 3.74 µM
CC1(C)CC(=O)C2=C(C1)NC(SSC1=C(C#N)C(c3ccccc3)C3=C(CC(C)(C)CC3=O)N1)=C(C#N)C2c1ccccc1 (stereo not drawn) | 26.1 µg/mL | 47.5 µg/mL | 27.7 µg/mL | 48.6 µg/mL | 27.3 µg/mL | 48.6 µg/mL | 29 µg/mL | 53.3 µg/mL | 89.2 µg/mL | > 150 µg/mL | 33.7 µg/mL | 97.8 µg/mL | 37.7 µg/mL | 104 µg/mL | 26.3 µg/mL | 47 µg/mL | 26.8 µg/mL | 48.8 µg/mL | 29.5 µg/mL | 51.5 µg/mL
O=C1C2CC(Cl)C(SSC3CC4C(=O)N(SC(Cl)(Cl)C(Cl)Cl)C(=O)C4CC3Cl)CC2C(=O)N1SC(Cl)(Cl)C(Cl)Cl (stereo not drawn) |  | 2.79 µM |  | 6.18 µM |  | 2.86 µM |  | 6.12 µM |  | 12.7 µM |  | 1.83 µM |  | 1.35 µM |  | 7.38 µM |  |  |  | 4.87 µM
Cc1ccc(S(=O)(=O)NC(CCC(=O)Nc2ccc(Cl)cc2)C(=O)Nc2ccc(Cl)cc2)cc1 (stereo not drawn) | 0.396 µM | 6.33 µM | 0.625 µM | 6.48 µM | 1.82 µM | 8.27 µM | 0.743 µM | 2.23 µM | 0.707 µM | 4.4 µM | 0.369 µM | 5.76 µM | 0.691 µM | 7.66 µM | 0.139 µM | 7.05 µM | 0.118 µM | 7.36 µM | 0.531 µM | 2.15 µM
COc1cc2c(cc1OC)C(=O)C(Br)CC2 (stereo not drawn) | 8.8 µM | 23.1 µM | 4.85 µM | 16.3 µM | 3.31 µM | 8.18 µM | 5.27 µM | 18.9 µM | 8.96 µM | 21.3 µM | 4.91 µM | 28.9 µM | 3.22 µM | 15 µM | 1.74 µM | 3.72 µM | 2.33 µM | 7.37 µM | 2.03 µM | 3.72 µM
COc1cc(CCc2cc(NC(=O)c3ccc(N4C[C@@H](C)N[C@@H](C)C4)cc3)n[nH]2)cc(OC)c1 | > 10 µM and 6.92 µM | > 10 µM and 23.9 µM | > 10 µM and 7.74 µM | > 10 µM and 20.9 µM | 8.58 µM and 5.25 µM | > 10 µM and 19.9 µM | 1.93 µM and 2.61 µM | > 10 µM and 11.2 µM | > 10 µM and 14.9 µM | > 10 µM and 30.8 µM | 2.47 µM and 4.15 µM | > 10 µM and 14.9 µM | 4.38 µM and 3.69 µM | > 10 µM and 13.2 µM | 3.79 µM and 3.49 µM | > 10 µM and 13.1 µM | > 10 µM and 9.71 µM | > 10 µM and 23.6 µM | 3.58 µM and 3.61 µM | > 10 µM and 11.5 µM
CC12OC(C(=O)C13CC3)C1C(=O)c3ccccc3C(=O)C12 (stereo not drawn) | 19.8 µM | 52.9 µM | 21.6 µM | 62.1 µM | 27.9 µM | 87.1 µM | 77.5 µM | > 100 µM | 36.4 µM | > 100 µM | 26.8 µM | 81.6 µM | 32 µM | > 100 µM | 34 µM | > 100 µM |  |  | 89 µM | > 100 µM
O=[N+]([O-])c1ccc(Sc2ncccn2)c([N+](=O)[O-])c1 | 2.13 µM | 15.1 µM | 3.89 µM | 13.5 µM | 1.75 µM | 4.72 µM | 4.51 µM | 17.6 µM | 10.8 µM | 23.1 µM | 2.37 µM | 15.8 µM | 2.32 µM | 25.4 µM | 3.43 µM | 11.8 µM | 2.67 µM | 11.1 µM | 3.11 µM | 10.8 µM
COc1ccc(-c2cc(-c3ccc(Nc4nc(Nc5ccc(Cl)cc5)nc(Nc5ccc(Cl)cc5)n4)cc3)nc(N)c2C#N)cc1 | 0.982 µM |  | 0.49 µM | 1.22 µM | 1.73 µM | 3.49 µM | 1.4 µM | 3.5 µM |  | > 24.1 µM | 0.866 µM | 4.59 µM | 0.702 µM | 3.56 µM | 1.65 µM | 3.65 µM | 1.54 µM | 5.24 µM | 0.865 µM | 2.75 µM
O=C(c1cccs1)c1c(C(F)(F)F)n([O-])c2ccc(C(F)(F)F)cc2[n+]1=O | 0.118 µM | 0.259 µM | 0.451 µM | 0.908 µM | 0.552 µM | 1.21 µM | 0.502 µM | 1.21 µM | 1.11 µM | 2.53 µM | 0.145 µM | 0.526 µM | 0.174 µM | 0.498 µM | 0.17 µM | 0.314 µM | 0.286 µM | 0.73 µM | 0.328 µM | 0.909 µM
C1=CN2C[n+]3cccc(OCc4ccccc4)c3N=C2C(OCc2ccccc2)=C1 |  | > 100 µM |  | 36 µM |  | 30.6 µM |  | > 100 µM |  | 27.2 µM |  | 0.849 µM |  |  |  | > 100 µM |  | > 100 µM |  | 18 µM
O=[N+]([O-])c1ccc(N/N=C\c2cc(Cl)ccc2O)nc1 | 0.747 µM | 55.6 µM | 3.65 µM | > 100 µM | 2.68 µM | 20.5 µM | 1.55 µM | 21.3 µM | 3.41 µM | > 100 µM | 0.65 µM | 8.02 µM | 0.51 µM | > 100 µM | 1.2 µM | 12.5 µM | 0.735 µM | > 100 µM | 5.06 µM | > 100 µM
C1CCC([PH+](C2CCCCC2)C2CCCCC2[PH+](C2CCCCC2)C2CCCCC2)CC1.[Au].[CH-]1CCCCC1C1CCCC[N-]1 (stereo not drawn) | 0.249 µM | 5.26 µM | 0.434 µM | 1.79 µM | 0.208 µM | 0.844 µM | 0.194 µM | 0.833 µM |  |  | 0.272 µM | 0.826 µM | 0.366 µM | > 100 µM |  |  | 1.5 µM | 3.03 µM |  | 
Cc1ccc(S(=O)(=O)N/N=C/C(Br)=C(/Br)C(=O)O)cc1 |  | 29.3 µM |  | 9.65 µM |  | 14.3 µM |  | 41 µM |  | 28.8 µM |  | 5.12 µM |  | 3.51 µM |  |  |  | 8.67 µM |  | 13.3 µM
Nc1ccn(C=C=CCO)c(=O)n1 | > 1000 µM | > 1000 µM |  |  | > 1000 µM | > 1000 µM | > 1000 µM | > 1000 µM | > 1000 µM | > 1000 µM |  | 435 µM | 38.8 µM | > 1000 µM | > 1000 µM | > 1000 µM | > 1000 µM | > 1000 µM | > 1000 µM | > 1000 µM
Cc1ccc(-c2c(C#N)c(N)nc(N3CCOCC3)c2C#N)o1 | 30.6 µM | > 100 µM | 71.3 µM | > 100 µM | 43.4 µM | > 100 µM | 2.73 µM | 43.9 µM |  |  | 46.3 µM | > 100 µM | 61.9 µM | > 100 µM | 33.5 µM | > 100 µM |  |  |  | 
O=C(Nc1ccncc1)C(=O)c1cn(S(=O)(=O)c2ccc(Br)cc2)c2ccccc12 | 8.87 µM | > 100 µM | 4.77 µM | > 100 µM | 24.2 µM | > 100 µM | 4 µM | 41.7 µM | 14.1 µM | > 100 µM | 2.41 µM | > 100 µM |  |  | 3.71 µM | > 100 µM | 3.81 µM | > 100 µM | 27.7 µM | > 100 µM
COc1cc(C(=O)O)c([N+](=O)[O-])c(OC)c1OC |  | > 100 µM |  | > 100 µM |  | > 100 µM |  | > 100 µM |  | > 100 µM |  |  |  | > 100 µM |  | > 100 µM |  | > 100 µM |  | > 100 µM
